{"source": "patent US20140134693A1", "about": "“Eliminating the Need of Acidification in Bioethanol Production” (Anitox Corporation, priority 2012, published 2014)", "origin": "cited, not measured here", "key": {"bacteria": {"tested_on": "bacteria", "conditions": "sugarcane ethanol production"}, "Lactobacillus [1]": {"tested_on": "Lactobacillus", "conditions": "600 mg/L"}, "Lactobacillus [2]": {"tested_on": "Lactobacillus"}, "[3]": {"tested_on": "Most bacteria, with the exception of Lactobacillus casei", "conditions": "ethanol fermentation process"}}, "note": "Where two headings read alike, the source gives them in different places.", "data": [{"compound": "penicillin", "values": [{"measurement": "bacteria resistant", "setting": "bacteria", "value": 97, "unit": "%"}]}, {"compound": "O=C(O)CCC(=O)O", "note": "[Succinic acid]", "values": [{"measurement": "reduction of Lactobacillus levels", "setting": "Lactobacillus [1]", "value": 78, "unit": "%"}, {"measurement": "reduction of Lactobacillus levels", "setting": "Lactobacillus [1]; in the presence of ethanol", "value": "up to 96%"}]}, {"compound": "virginiamycin", "values": [{"measurement": "bacteria resistant", "setting": "bacteria", "value": 48, "unit": "%"}]}, {"compound": "NC(N)=O.OO", "note": "[Urea hydrogen peroxide]", "values": [{"measurement": "bactericidal activity against Lactobacillus (in words)", "setting": "Lactobacillus [2]", "value": "excellent bactericidal activity"}]}, {"compound": "CC1(C)S[C@@H]2[C@H](NC(=O)[C@H](N)c3ccccc3)C(=O)N2[C@H]1C(=O)O", "note": "[ampicillin]", "values": [{"measurement": "bacteria resistant", "setting": "bacteria", "value": 97, "unit": "%"}]}, {"compound": "OO", "note": "[hydrogen peroxide]", "values": [{"measurement": "concentration controlling bacteria", "setting": "[3]", "value": "1 to 10", "unit": "mM"}]}]}
